Each compound was assayed on TNFα (assay: Cot Monocyte TNFα Cell Based Assay). Details: Homo sapiens, Monocyte, read-out: EC50 TNF, LPS-stimulated human monocytes, TNFα.

Compound | EC50 [µM]
CC(C)(C)CNc1c(C#N)cnc2c(Cl)cc(N[C@H](c3cn(C4(C(F)(F)F)CC4)nn3)c3cccc4c(=O)n(C(F)F)ccc34)cc12 [Example 788, (S)-8-chloro-6-(((2-(difluoromethyl)-1-oxo-1,2-dihydroisoquinolin-5-yl)(1-(1-(trifluoromethyl)cyclopropyl)-1H-1,2,3-triazol-4-yl)methyl)amino)-4-(neopentylamino)quinoline-3-carbonitrile] | 0.208
Cc1nc(F)ccc1[C@H](Nc1cc(F)c2ncc(C#N)c(NCC(C)(C)C)c2c1)c1cn(C2(C#N)CC2)nn1 [Example 485, (S)-6-(((1-(1-cyanocyclopropyl)-1H-1,2,3-triazol-4-yl)(6-fluoro-2-methylpyridin-3-yl)methyl)amino)-8-fluoro-4-(neopentyl-amino)quinoline-3-carbonitrile] | 0.029
Cc1ncccc1[C@H](Nc1cc(Cl)c2ncc(C#N)c(N[C@H](C)c3ccccc3)c2c1)c1c[nH]nn1 [Example 229, 8-chloro-6-(((S)-(2-methylpyridin-3-yl)(1H-1,2,3-triazol-4-yl)methyl)amino)-4-(((R)-1-phenylethyl)amino)quinoline-3-carbonitrile] | 1.47
Cn1ccc2c([C@H](Nc3cc(Cl)c4ncc(C#N)c(NCC(C)(C)C)c4c3)c3cn(C4CC4)nn3)ccnc21 [Example 519, (S)-8-chloro-6-(((1-cyclopropyl-1H-1,2,3-triazol-4-yl)(1-methyl-1H-pyrrolo[2,3-b]pyridin-4-yl)methyl)amino)-4-(neopentylamino)quinoline-3-carbonitrile] | 0.158
Cn1ncc2c([C@H](Nc3cc(Cl)c4ncc(C#N)c(NCC(C)(C)C)c4c3)c3cn(Cc4c(F)cccc4F)nn3)cccc21 [Example 655, (S)-8-chloro-6-(((1-(2,6-difluorobenzyl)-1H-1,2,3-triazol-4-yl)(1-methyl-1H-indazol-4-yl)methyl)amino)-4-(neopentylamino)quinoline-3-carbonitrile] | 0.104
CC[C@@H](Nc1c(C#N)cnc2c(Cl)cc(N[C@@H](c3cccnc3)c3cn([C@@H](C)CF)nn3)cc12)c1ccccc1 [Example 181, 8-chloro-6-(((S)-(1-((S)-1-fluoropropan-2-yl)-1H-1,2,3-triazol-4-yl)(pyridin-3-yl)methyl)amino)-4-(((R)-1-phenylpropyl)amino)quinoline-3-carbonitrile] | 0.092
Cc1ccc([C@H](Nc2cc(Cl)c3ncc(C#N)c(Nc4ccc(F)c(Cl)c4)c3c2)c2cn(C3CCN(C(C)(C)C)CC3)nn2)cn1 [Example 281, (S)-6-(((1-(1-(tert-butyl)piperidin-4-yl)-1H-1,2,3-triazol-4-yl)(6-methylpyridin-3-yl)methyl)amino)-8-chloro-4-((3-chloro-4-fluorophenyl)-amino)quinoline-3-carbonitrile] | 0.575
Cn1ccc2c([C@H](Nc3cc(Cl)c4ncc(C#N)c(NCC(C)(C)C)c4c3)c3cn(C4(C(F)(F)F)CC4)nn3)ccnc21 [Example 658, (S)-8-chloro-6-(((1-methyl-1H-pyrrolo[2,3-b]pyridin-4-yl)(1-(1-(trifluoromethyl)-cyclopropyl)-1H-1,2,3-triazol-4-yl)methyl)amino)-4-(neopentylamino)quinoline-3-carbonitrile] | 0.374
Cc1nc(F)ccc1[C@H](Nc1cc(Cl)c2ncc(C#N)c(NCC(C)(C)C)c2c1)c1cn(C2(C(C)(C)C)CC2)nn1 [Example 761, (S)-6-(((1-(1-(tert-butyl)cyclopropyl)-1H-1,2,3-triazol-4-yl)(6-fluoro-2-methylpyridin-3-yl)methyl)amino)-8-chloro-4-(neopentylamino)quinoline-3-carbonitrile] | 0.069
Cc1nc(F)ccc1[C@H](Nc1cc(Cl)c2ncc(C#N)c(NCC(C)(C)C)c2c1)c1cn(C2(CC(F)(F)F)CC2)nn1 [Example 753, (S)-8-chloro-6-(((6-fluoro-2-methylpyridin-3-yl)(1-(1-(2,2,2-trifluoroethyl)-cyclopropyl)-1H-1,2,3-triazol-4-yl)methyl)amino)-4-(neopentylamino)quinoline-3-carbonitrile] | 0.059
Cc1nc(F)ccc1[C@H](Nc1cc(Cl)c2ncc(C#N)c(NCC(C)(C)C)c2c1)c1nnn(C2CC2)c1C [Example 647, (S)-8-chloro-6-(((1-cyclopropyl-5-methyl-1H-1,2,3-triazol-4-yl)(6-fluoro-2-methylpyridin-3-yl)methyl)amino)-4-(neopentylamino)quinoline-3-carbonitrile] | 0.133
Cc1nc(C)c([C@H](Nc2cc(Cl)c3ncc(C#N)c(Nc4ccc(F)c(Cl)c4)c3c2)c2cn(C3CCN(C(C)(C)C)CC3)nn2)s1 [Example 261, (R)-6-(((1-(1-(tert-butyl)piperidin-4-yl)-1H-1,2,3-triazol-4-yl)(2,4-dimethyl-thiazol-5-yl)methyl)amino)-8-chloro-4-((3-chloro-4-fluorophenyl)amino)-quinoline-3-carbonitrile] | 0.344
N#Cc1csc([C@H](Nc2cc(Cl)c3ncc(C#N)c(Nc4ccc(F)c(Cl)c4)c3c2)c2cn(C3COC3)nn2)c1 [Example 339, (R)-8-chloro-4-((3-chloro-4-fluorophenyl)amino)-6-(((4-cyanothiophen-2-yl)(1-(oxetan-3-yl)-1H-1,2,3-triazol-4-yl)methyl)amino)-quinoline-3-carbonitrile] | 1.01
CC(C)n1cc([C@@H](Nc2cc(Cl)c3ncc(C#N)c(Nc4ccc(F)c(Cl)c4)c3c2)c2cocn2)nn1 [Example 312, (S)-8-chloro-4-((3-chloro-4-fluorophenyl)amino)-6-(((1-isopropyl-1H-1,2,3-triazol-4-yl)(oxazol-4-yl)methyl)amino)quinoline-3-carbonitrile] | 1.24
CCN1CCC(n2cc([C@@H](Nc3cc(Cl)c4ncc(C#N)c(Nc5ccc(F)c(Cl)c5)c4c3)c3ccc(Cl)s3)nn2)CC1 [Example 382, (R)-8-chloro-4-((3-chloro-4-fluoro-phenyl)amino)-6-(((5-chlorothiophen-2-yl)(1-(1-ethylpiperidin-4-yl)-1H-1,2,3-triazol-4-yl)methyl)amino)quinoline-3-carbonitrile] | 0.768
CC(C)(C)CNc1c(C#N)cnc2c(Br)cc(N[C@H](c3cn(C4(C(F)(F)F)CC4)nn3)c3cccc4ncsc34)cc12 [Example 439, (S)-6-((benzo[d]thiazol-7-yl(1-(1-(trifluoromethyl)cyclopropyl)-1H-1,2,3-triazol-4-yl)methyl)amino)-8-bromo-4-(neopentylamino)quinoline-3-carbonitrile] | 0.299
CC(C)(C)CNc1c(C#N)cnc2c(Cl)cc(N[C@H](c3cn(C4(C(F)(F)F)CC4)nn3)c3ccc(F)c4cnccc34)cc12 [Example 616, (S)-8-chloro-6-(((8-fluoroisoquinolin-5-yl)(1-(1-(trifluoromethyl)cyclopropyl)-1H-1,2,3-triazol-4-yl)methyl)amino)-4-(neopentylamino)quinoline-3-carbonitrile] | 0.104
CC(C)(C)N1CCC(n2cc([C@@H](Nc3cc(Cl)c4ncc(C#N)c(Nc5ccc(F)c(Cl)c5)c4c3)c3cccc4c3CCN4)nn2)CC1 [Example 60, (S)-6-(((1-(1-(tert-butyl)piperidin-4-yl)-1H-1,2,3-triazol-4-yl)(indolin-4-yl)methyl)amino)-8-chloro-4-((3-chloro-4-fluorophenyl)amino)quinoline-3-carbonitrile] | 0.131

Same assay, conditions: Homo sapiens, Monocyte, read-out: EC50 TNF, LPS-stimulated human monocytes, TNFα TR-FRET

Compound | EC50 [µM]
CC(C)(C)CNc1c(C#N)cnc2c(Cl)cc(N[C@H](c3cn(C4(C(F)(F)F)CC4)nn3)c3cccc4c(Cl)nccc34)cc12 [Example 916, (S)-8-chloro-6-(((1-chloroisoquinolin-5-yl)(1-(1-(trifluoromethyl)cyclopropyl)-1H-1,2,3-triazol-4-yl)methyl)amino)-4-(neopentylamino)quinoline-3-carbonitrile] | 0.269
Cn1cccc([C@H](Nc2cc(C#N)c3ncc(C#N)c(NCC(C)(C)C)c3c2)c2cn(C3(C(F)(F)F)CC3)nn2)c1=O [Example 844, (S)-6-(((1-methyl-2-oxo-1,2-dihydropyridin-3-yl)(1-(1-(trifluoromethyl)cyclopropyl)-1H-1,2,3-triazol-4-yl)methyl)amino)-4-(neopentylamino)quinoline-3,8-dicarbonitrile] | 0.417
Cc1nc(F)ccc1[C@H](Nc1cc(C#N)c2ncc(C#N)c(NCC(C)(C)C(F)(F)F)c2c1)c1nnn(C2(C3CC3)CC2)c1F [Example 862, (S)-6-(((1-([1,1′-bi(cyclopropan)]-1-yl)-5-fluoro-1H-1,2,3-triazol-4-yl)(6-fluoro-2-methylpyridin-3-yl)methyl)amino)-4-((3,3,3-trifluoro-2,2-dimethylpropyl)amino)quinoline-3,8-dicarbonitrile] | 0.049

Same assay, conditions: read-out: EC50 TNF; LPS-stimulated human monocytes, TNFα

Compound | EC50 [µM]
Cc1cncc([C@H](Nc2cc(Cl)c3ncc(C#N)c(Nc4ccc(F)c(Cl)c4)c3c2)c2c[nH]nn2)c1 [Example 249, (S)-8-chloro-4--((3-chloro-4-fluorophenyl)amino)-6-(((5-methylpyridin-3-yl)(1H-1,2,3-triazol-4-yl)methyl)amino)quinoline-3-carbonitrile] | 0.332
Cn1nccc1[C@H](Nc1cc(Cl)c2ncc(C#N)c(NCC(C)(C)C)c2c1)c1cn(C2(C(F)(F)F)CC2)nn1 [Example 666, (S)-8-chloro-6-(((1-methyl-1H-pyrazol-S-yl)(1-(1-(trifluoromethyl)cyclopropyl)-1H-1,2,3-triazol-4-yl)methyl)amino)-4-(neopentylamino)quinoline-3-carbonitrile] | 0.246
Cc1ncccc1[C@H](Nc1cc(Cl)c2ncc(C#N)c(N[C@H](C)c3ccccc3)c2c1)c1cn(C2CCN(C(C)(C)C)CC2)nn1 [Example 231] | 0.23

Same assay, conditions: read-out: EC50 TNF; LPS-stimulated human monocytes, TNFα TR-FRET

Compound | EC50 [µM]
COc1nccc2c([C@H](Nc3cc(Cl)c4ncc(C#N)c(NCC(C)(C)C(F)(F)F)c4c3)c3cn(C45CC(C4)C5)nn3)cccc12 [Example 928, (S)-6-(((1-(bicyclo[1.1.1]pentan-1-yl)-1H-1,2,3-triazol-4-yl)(1-methoxylsoquinolin-5-yl)methyl)amino)-8-chloro-4-((3,3,3-trifluoro-2,2-dimethylpropyl)amino)quinoline-3-carbonitrile] | 0.099

Reference: patent US11066414B2, “Cot modulators and methods of use thereof” (Gilead Sciences, Inc., priority 2015, dated 2021)
